Columns and labels:
calf serum [1] = experiment: Dot-ELISA, synthetic peptides with serum of calf immunized with peptide pool; format: in vivo; design: key to Peptide Reactivity, Calf serum inoculated with pool: — = Did not react; X = Reacted; details: for Peptide Reactivity, Calf serum inoculated with pool: Dot-ELISA, peptide as antigen, calf inoculated with pool SEQ ID NO: 20, 21, 23, 25, 26; for Dot-ELISA reaction of calf serum inoculated with the peptide pool with the antigen: label = antigen on disc
Text: (§1) The immunogenicity of the synthetic peptides was verified by immunizing a previously tested calf with negative results for Anaplasma marginale, Babesia bovis and Babesia bigemina by serology and PCR. For inoculations, a peptide pool (SEQ ID NO: 20, SEQ ID NO: 21, SEQ ID NO: 23, SEQ ID NO: 25 and SEQ ID NO: 26) was emulsified in Freund's complete adjuvant (Sigma) and, inoculated intramuscularly in the quadriceps. Two further immunizations, on the 14th and 28th day after inoculation, were performed using incomplete Freund's adjuvant (Sigma). Each inoculation was done using 100 μg/mL of each peptide. Blood samples were collected by jugular puncture on the 10th day after the last immunization and the sera obtained were stored at −20° C. until evaluated by Dot-ELISA and Western-blotting assays.
(§2) Synthetic peptides were used as antigen in the Dot-ELISA technique to verify their ability to react with specific antibodies present in the serum of BALB/c mice, as well as in calf serum, all immunized. The technique was performed as described by Machado et al. (1994), with minor modifications. Briefly, small nitrocellulose discs were cut using a paper punch and each disc arranged in a flat bottom 24-well culture plate well. 4 μg/mL of each synthetic peptide alone, as well as the peptide pool, were deposited on each disc. The discs were dried at room temperature and then blocked for 12 hours at room temperature with […] TBS buffer (0.1 M Tris, 0.1 M NaCl and 0.5% Tween 20; TBS-Tween 20), plus 5% skim milk powder. Test sera were diluted 1:25 (mice and calf) in TBS-Tween 20 containing 5% skim milk powder and incubated for 120 minutes at room temperature and under constant stirring. Then the discs were subjected to two washes with TBS-Tween 20 plus 5% skim milk powder and one wash with TBS-Tween 20 (5 min interval between each wash). To each mouse serum disc was added the alkaline phosphate-coupled anti-mouse conjugate (anti-mouse IgG goat IgG, Sigma A-3562) diluted 1:30,000 in TBS-Tween 20 plus 5% of skim milk powder. To calf serum-containing discs, it was added alkaline phosphate-coupled anti-bovine conjugate (anti-cattle IgG rabbit IgG, Sigma A-0705) diluted 1:30,000 in TBS-Tween 20, plus 5% skim milk powder. After one hour incubation with the appropriate conjugates, washes were followed as in the previous step.

calf serum [2] = experiment: Western blotting, synthetic peptides with calf serum; format: in vivo; details: label = antigen on blot
Text: as §1
(§3) Samples of synthetic peptides were analyzed by Western blotting. To this end, initially, the samples were submitted to polyacrylamide gel electrophoresis under denaturing conditions, according to the technique recommended by Laemmli (1970). Based on the sample volume 2× concentrated sample buffer (250 mM Tris-HCl pH 6.8, 40% glycerol, 8% SDS, 20% β-mercaptoethanol and 0.008% bromophenol blue) was added. The samples were homogenized, incubated for 5 minutes at 100° C. and applied to the gel. The separation gel was prepared at a concentration of 12% polyacrylamide in buffer (1.875 M Tris, pH 8.8 and 1% SDS) and 5% polyacrylamide for buffer packaging gel (1.875 M Tris, pH 6.8 and 0.5% SDS). Electrophoresis was performed in Tris-Glycine Running Buffer (50 mM Tris, pH 8.6, 1.92 M Glycine and 1% SDS) at 100 V for up to 3 hours and 30 minutes at 0° C. in the Mini-Protean II system (Bio-Rad).
Synthetic peptides processed on the polyacrylamide gel (SDS-PAGE) were transferred to the nitrocellulose membrane for analysis by Wester blot (TOWBIN et al., 1979). The nitrocellulose membrane (Merck) was previously incubated in ice cold transfer buffer (0.58% Tris Base pH 8.3, 20% methanol and 0.29% glycine). For this, the membrane was placed in the “Mini Trans-Blot” (Bio-Rad) electrotransfer system containing the same buffer and the transfer was performed at 100 V for 90 minutes. The membrane was incubated in TBS-Tween (10 mM Tris-HCl pH 7.5; 150 mM NaCl, 0.05% Tween-20) plus 5% skim milk powder for 12 hours at 4° C. under low agitation, for saturation of non-specific binding sites. The membrane was then incubated with each serum from each mouse alone or incubated with calf serum for 2 hours at room temperature under slow stirring. It was then subjected to three consecutive 10-minute washes with the same solution under slow agitation. […]

[3] = tested on: bovine serum serologically positive / negative / vaccinated for A. marginale; experiment: Dot-ELISA, synthetic peptides with sera of cattle serologically positive, negative or vaccinated for A. marginale; format: binding; details: peptide as antigen
Description: as §2

serum of BALB/c mice = experiment: Dot-ELISA, synthetic peptides with serum of immunized BALB/c mice; format: in vivo; design: key to Peptide Reactivity, Mice serum inoculated with isolated peptides 1 / Peptide Reactivity, Mice serum inoculated with isolated peptides 2 / Peptide Reactivity, Mice serum inoculated with isolated peptides 3 / Peptide Reactivity, Mice serum inoculated with pool / Peptide Reactivity, Mice serum inoculated with Saline (Negative Control) / Reaction with pool of peptides, Mouse 1 serum / Reaction with pool of peptides, Mouse 2 serum / Reaction with pool of peptides, Mouse 3 serum: — = Did not react; X = Reacted; details: for Peptide Reactivity, Mice serum inoculated with pool / Peptide Reactivity, Mice serum inoculated with isolated peptides 1 / Peptide Reactivity, Mice serum inoculated with isolated peptides 2 / Peptide Reactivity, Mice serum inoculated with isolated peptides 3 / Peptide Reactivity, Mice serum inoculated with Saline (Negative Control) / Reaction with pool of peptides, Mouse 1 serum / Reaction with pool of peptides, Mouse 2 serum / Reaction with pool of peptides, Mouse 3 serum: Dot-ELISA; for Peptide Reactivity, Mice serum inoculated with pool / Peptide Reactivity, Mice serum inoculated with isolated peptides 1 / Peptide Reactivity, Mice serum inoculated with isolated peptides 2 / Peptide Reactivity, Mice serum inoculated with isolated peptides 3 / Peptide Reactivity, Mice serum inoculated with Saline (Negative Control) / Dot-ELISA reaction of mouse sera inoculated with the peptide pool / Dot-ELISA reaction of sera from mice inoculated with hybrid peptides alone: peptide as antigen; for Peptide Reactivity, Mice serum inoculated with pool: mice inoculated with pool of all 8 hybrid peptides; for Peptide Reactivity, Mice serum inoculated with isolated peptides 1: serum of mouse 1 inoculated with the same isolated peptide; for Peptide Reactivity, Mice serum inoculated with isolated peptides 1 / Peptide Reactivity, Mice serum inoculated with isolated peptides 2 / Peptide Reactivity, Mice serum inoculated with isolated peptides 3: serum 1:25; for Peptide Reactivity, Mice serum inoculated with isolated peptides 2: serum of mouse 2 inoculated with the same isolated peptide; for Peptide Reactivity, Mice serum inoculated with isolated peptides 3: serum of mouse 3 inoculated with the same isolated peptide; for Peptide Reactivity, Mice serum inoculated with Saline (Negative Control): serum of saline-inoculated mice; for Reaction with pool of peptides, Mouse 1 serum / Reaction with pool of peptides, Mouse 2 serum / Reaction with pool of peptides, Mouse 3 serum: pool of peptides as antigen; for Reaction with pool of peptides, Mouse 1 serum: serum of mouse 1 inoculated with the labelled peptide; for Reaction with pool of peptides, Mouse 2 serum: serum of mouse 2 inoculated with the labelled peptide; for Reaction with pool of peptides, Mouse 3 serum: serum of mouse 3 inoculated with the labelled peptide; for Dot-ELISA reaction of mouse sera inoculated with the peptide pool: pool of all 8 hybrid peptides
Description: (§4) The immunogenicity of each peptide was checked immunizing BALB/c mice, approximately six weeks old, with […] of protein (Machado et al., 1994). The mice were divided into groups of three animals each. The groups were: P28, P41, P42, P44, P50, P51, P53, P54, Pool (mice inoculated with a pool of peptides, in the case with all 8 hybrid peptides) and negative control group. For inoculations, the peptides were emulsified in Freund's complete adjuvant (Sigma) and inoculated intramuscularly in the quadriceps. Two further immunizations, on the 14th and 28th day after inoculation, were performed using incomplete Freund's adjuvant (Sigma). Each inoculation was carried out using 10 μg/mL of each peptide. Negative control mice were inoculated with sterile saline in place of the peptides and also emulsified in adjuvant. Blood samples were collected by intracardiac puncture on the 10th day after the last immunization and the sera obtained were stored at −20° C. until evaluated by Dot-ELISA and Western-blotting assays.
as §2

mouse serum = experiment: Western blotting, synthetic peptides with serum of inoculated mice; details: in vivo
Description: as §4, §3
Synthetic peptides processed on the polyacrylamide gel (SDS-PAGE) were transferred to the nitrocellulose membrane for analysis by Wester blot (TOWBIN et al., 1979). The nitrocellulose membrane (Merck) was previously incubated in ice cold transfer buffer (0.58% Tris Base pH 8.3, 20% methanol and 0.29% glycine). For this, the membrane was placed in the “Mini Trans-Blot” (Bio-Rad) electrotransfer system containing the same buffer and the transfer was performed at 100 V for 90 minutes. The membrane was incubated in TBS-Tween (10 mM Tris-HCl pH 7.5; 150 mM NaCl, 0.05% Tween-20) plus 5% skim milk powder for 12 hours at 4° C. under low agitation, for saturation of non-specific binding sites. The membrane was then incubated with each serum from each mouse alone or incubated with calf serum for 2 hours at room temperature under slow stirring. […]

Sequence: SKVASVEYILAARGGGGQVDRLANALGKGGGGAMGDSVHWKVKPVDNKLFIMP (Synthetic hybrid peptide) [P53]
- Peptide Reactivity, Calf serum inoculated with pool (calf serum [1]): X
- Dot-ELISA reaction of calf serum inoculated with the peptide pool with the antigen (calf serum [1]): reacted
- Western blotting reactivity of calf serum inoculated with the peptide pool (calf serum [2]): showed reactivity
- Reaction of sera from serologically positive cattle for A. marginale with synthetic peptide [3]: reacted
- Peptide Reactivity, Mice serum inoculated with pool (serum of BALB/c mice): X
- Peptide Reactivity, Mice serum inoculated with isolated peptides 1 (serum of BALB/c mice): —
- Peptide Reactivity, Mice serum inoculated with isolated peptides 2 (serum of BALB/c mice): —
- Peptide Reactivity, Mice serum inoculated with isolated peptides 3 (serum of BALB/c mice): —
- Peptide Reactivity, Mice serum inoculated with Saline (Negative Control) (serum of BALB/c mice): —
- Reaction with pool of peptides, Mouse 1 serum (serum of BALB/c mice): X
- Reaction with pool of peptides, Mouse 2 serum (serum of BALB/c mice): X
- Reaction with pool of peptides, Mouse 3 serum (serum of BALB/c mice): X
- Dot-ELISA reaction of mouse sera inoculated with the peptide pool (serum of BALB/c mice): reacted
- Western blotting reaction of serum of mice inoculated with synthetic peptide (mouse serum): reacted

Sequence: SECVSLQPTDSSSASGQQQEGGGGLQGHMIDAVLETAINSDIPGVLRAIVSRDV (Synthetic hybrid peptide) [P54]
- Peptide Reactivity, Calf serum inoculated with pool (calf serum [1]): —
- Reaction of sera from serologically positive cattle for A. marginale with synthetic peptide [3]: reacted
- Peptide Reactivity, Mice serum inoculated with pool (serum of BALB/c mice): X
- Peptide Reactivity, Mice serum inoculated with isolated peptides 1 (serum of BALB/c mice): X
- Peptide Reactivity, Mice serum inoculated with isolated peptides 2 (serum of BALB/c mice): X
- Peptide Reactivity, Mice serum inoculated with isolated peptides 3 (serum of BALB/c mice): X
- Peptide Reactivity, Mice serum inoculated with Saline (Negative Control) (serum of BALB/c mice): —
- Reaction with pool of peptides, Mouse 1 serum (serum of BALB/c mice): —
- Reaction with pool of peptides, Mouse 2 serum (serum of BALB/c mice): X
- Reaction with pool of peptides, Mouse 3 serum (serum of BALB/c mice): —
- Dot-ELISA reaction of sera from mice inoculated with hybrid peptides alone (serum of BALB/c mice): reacted
- Dot-ELISA reaction of mouse sera inoculated with the peptide pool (serum of BALB/c mice): reacted
- Western blotting reaction of serum of mice inoculated with synthetic peptide (mouse serum): reacted

Sequence: SKVASVEYILAARGGGGQVDRLANALGK (Synthetic hybrid peptide) [P28]
- Peptide Reactivity, Calf serum inoculated with pool (calf serum [1]): —
- Reaction of sera from serologically positive cattle for A. marginale with synthetic peptide [3]: reacted
- Reaction of sera from vaccinated cattle for A. marginale with synthetic peptide [3]: reacted
- Peptide Reactivity, Mice serum inoculated with pool (serum of BALB/c mice): —
- Peptide Reactivity, Mice serum inoculated with isolated peptides 1 (serum of BALB/c mice): —
- Peptide Reactivity, Mice serum inoculated with isolated peptides 2 (serum of BALB/c mice): —
- Peptide Reactivity, Mice serum inoculated with isolated peptides 3 (serum of BALB/c mice): —
- Peptide Reactivity, Mice serum inoculated with Saline (Negative Control) (serum of BALB/c mice): —
- Reaction with pool of peptides, Mouse 1 serum (serum of BALB/c mice): —
- Reaction with pool of peptides, Mouse 2 serum (serum of BALB/c mice): X
- Reaction with pool of peptides, Mouse 3 serum (serum of BALB/c mice): —
- Dot-ELISA reaction of mouse sera inoculated with the peptide pool (serum of BALB/c mice): reacted

Sequence: SSVSSQSDQASTSSQLGGGGAMGDSVHWKVKPVDNKLFIMP (Synthetic hybrid peptide) [P41]
- Peptide Reactivity, Calf serum inoculated with pool (calf serum [1]): X
- Dot-ELISA reaction of calf serum inoculated with the peptide pool with the antigen (calf serum [1]): reacted
- Western blotting reactivity of calf serum inoculated with the peptide pool (calf serum [2]): showed reactivity
- Peptide Reactivity, Mice serum inoculated with pool (serum of BALB/c mice): —
- Peptide Reactivity, Mice serum inoculated with isolated peptides 1 (serum of BALB/c mice): —
- Peptide Reactivity, Mice serum inoculated with isolated peptides 2 (serum of BALB/c mice): —
- Peptide Reactivity, Mice serum inoculated with isolated peptides 3 (serum of BALB/c mice): —
- Peptide Reactivity, Mice serum inoculated with Saline (Negative Control) (serum of BALB/c mice): —
- Reaction with pool of peptides, Mouse 1 serum (serum of BALB/c mice): —
- Reaction with pool of peptides, Mouse 2 serum (serum of BALB/c mice): —
- Reaction with pool of peptides, Mouse 3 serum (serum of BALB/c mice): —

Sequence: LAESTEGNLEEVWILGKGGGGFSESMKALIKKYVDTSKPTIYVDQGTVMKV (Synthetic hybrid peptide) [P51]
- Peptide Reactivity, Calf serum inoculated with pool (calf serum [1]): X
- Dot-ELISA reaction of calf serum inoculated with the peptide pool with the antigen (calf serum [1]): reacted
- Western blotting reactivity of calf serum inoculated with the peptide pool (calf serum [2]): showed reactivity
- Peptide Reactivity, Mice serum inoculated with pool (serum of BALB/c mice): X
- Peptide Reactivity, Mice serum inoculated with isolated peptides 1 (serum of BALB/c mice): —
- Peptide Reactivity, Mice serum inoculated with isolated peptides 2 (serum of BALB/c mice): X
- Peptide Reactivity, Mice serum inoculated with isolated peptides 3 (serum of BALB/c mice): X
- Peptide Reactivity, Mice serum inoculated with Saline (Negative Control) (serum of BALB/c mice): —
- Reaction with pool of peptides, Mouse 1 serum (serum of BALB/c mice): —
- Reaction with pool of peptides, Mouse 2 serum (serum of BALB/c mice): X
- Reaction with pool of peptides, Mouse 3 serum (serum of BALB/c mice): —
- Dot-ELISA reaction of sera from mice inoculated with hybrid peptides alone (serum of BALB/c mice): reacted
- Dot-ELISA reaction of mouse sera inoculated with the peptide pool (serum of BALB/c mice): reacted

Reference: patent US11034735B2, “Hybrid peptide, set of hybrid peptides, composition, uses of the hybrid peptide, method for inducing an immune response and kits” (priority 2017, dated 2021)
